Among the data in patent US10287275B2, “16-member triamilide derivatives and uses thereof” (VICTOR PHARMA CO., LTD. ZHENJIANG, priority 2015, dated 2019) are MIC values, retold here.

Molecules are shown by their SMILES. In brackets after ≈: the same amount, converted by molar mass. Bounds are passed on as bounds.

Holding throughout (format): cell-based
For one assay, the system named is M. hyorinis BTS-7. As to the kind of experiment: Mycoplasma susceptibility testing (MIC). Here is the method:
(§1) The MIC's in Table I and Table II were determined by standard agar-dilution assays or broth-dilution microtiter test.

The subject of another assay is M. gallisepticum S6. As to the kind of experiment: Mycoplasma susceptibility testing (MIC). The settings on record: Mycoplasmoides gallisepticum. Here is the method:
as §1

A further assay concerns M. gallisepticum BG44T. Description: Mycoplasma susceptibility testing (MIC). As to conditions: Mycoplasmoides gallisepticum. Here is the method: as §1
In assay [1] the test system is Klebsiella pneumoniae 3753. As to the kind of experiment: Antibacterial MIC, agar-dilution or broth-dilution microtiter test. As to conditions: Strain J: Klebsiella pneumoniae 3753. Here is the method: as §1
Assay [2] concerns Escherichia coli 25922 (QC strain). The description is as above. As to conditions: Strain F: Escherichia coli 25922 (QC strain). Here is the method: as §1
The next assay concerns Escherichia coli IN-F6-7. Described as above. As to conditions: INF67; Strain E: Escherichia coli IN-F6-7. Here is the method: as §1
Assay [3] concerns Klebsiella pneumoniae 3699. The assay is described as above. As to conditions: Strain K: Klebsiella pneumoniae 3699. Here is the method: as §1
For assay [4], the system named is Actinobacillus pleuropneumoniae serotype 1. The assay is described as above. The settings on record: Strain A: Actinobacillus pleuropneumoniae serotype 1. Here is the method:
as §1

Assay [5] deals with Streptococcus pneumoniae 2349. The description is as above. As to conditions: Strain L: Streptococcus pneumoniae 2349. Here is the method: as §1
Another assay deals with salmonella LD4-8. The description is as above. As to conditions: LD48; Strain I: salmonella LD4-8. Here is the method:
as §1

Assay [6] deals with Staphylococcus aureus 29213 (QC strain). Described as above. As to conditions: Strain H: Staphylococcus aureus 29213 (QC strain). Here is the method: as §1
Assay [7] deals with Streptococcus pneumoniae 49619 (QC strain). Described as above. The settings on record: Strain M: Streptococcus pneumoniae 49619 (QC strain). Here is the method:
as §1

For another assay, the system named is Pasteurella 8217. The description is as above. The settings on record: Strain C: Pasteurella 8217. Here is the method:
as §1

The subject of assay [8] is Staphylococcus aureus 5-1. The assay is described as above. As to conditions: 51; Strain G: Staphylococcus aureus 5-1. Here is the method:
as §1

The subject of assay [9] is Actinobacillus pleuropneumoniae serotype 7. The description is as above. The settings on record: Strain B: Actinobacillus pleuropneumoniae serotype 7. Here is the method:
as §1

For the next assay, the system named is Pasteurella 8229. The description is as above. As to conditions: Strain D: Pasteurella 8229. Here is the method:
as §1

Take `CC[C@H]1OC(=O)C[C@@H](O)[C@H](C)[C@@H](O[C@@H]2O[C@H](C)[C@@H](O)[C@H](N(C)C)[C@H]2O)[C@@H](CCN2CCCCC2)C[C@@H](C)C(=O)/C=C/C(C)=C/[C@@H]1CN(CC)CC` [Compound 4a, (4R,5S,6S,7R,9R,11E,13E,15R,16R)-15-((diethylamino)methyl)-6-(((2R,3R,4S,5S,6R)-4-(dimethylamino)-3,5-dihydroxy-6-methyltetrahydro-2H-pyran-2-yl)oxy)-16-ethyl-4-hydroxy-5,9,13-trimethyl-7-(2-(piperidin-1-yl)ethyl)oxacyclohexadeca-11,13-diene-2,10-dione]: the minimum inhibitory concentration (MIC) is 62.5 µg/mL (≈ 86.6 µM) with M. hyorinis BTS-7; below 0.12 µg/mL against M. gallisepticum S6; below 0.12 µg/mL in the assay on M. gallisepticum BG44T; 32 µg/mL (≈ 44.3 µM) in [1]; 4 µg/mL (≈ 5.54 µM) in assay [2]; 8 µg/mL (≈ 11.1 µM) against Escherichia coli IN-F6-7. Moreover, the MIC in [3] is above 256 µg/mL; in assay [4] it was 32 µg/mL (≈ 44.3 µM); in assay [5], 0.5 µg/mL (≈ 0.693 µM); in the assay on salmonella LD4-8 it was 4 µg/mL (≈ 5.54 µM); in [6], 4 µg/mL (≈ 5.54 µM); in assay [7] it was 8 µg/mL (≈ 11.1 µM). For the same molecule, the MIC was 0.5 µg/mL (≈ 0.693 µM) in the assay with Pasteurella 8217, above 256 µg/mL in assay [8], 32 µg/mL (≈ 44.3 µM) in [9] and 0.5 µg/mL (≈ 0.693 µM) in the assay with Pasteurella 8229.
In the case of `CCCN(CCC)C[C@H]1/C=C(C)/C=C/C(=O)[C@H](C)C[C@H](CCN2CCCCC2)[C@H](O[C@@H]2O[C@H](C)[C@@H](O)[C@H](N(C)C)[C@H]2O)[C@@H](C)[C@H](O)CC(=O)O[C@@H]1CC` [Compound 4b, (4R,5S,6S,7R,9R,11E,13E,15R,16R)-6-(((2R,3R,4S,5S,6R)-4-(dimethylamino)-3,5-dihydroxy-6-methyltetrahydro-2H-pyran-2-yl)oxy)-15-((dipropylamino)methyl)-16-ethyl-4-hydroxy-5,9,13-trimethyl-7-(2-(piperidin-1-yl)ethyl)oxacyclohexadeca-11,13-diene-2,10-dione], the minimum inhibitory concentration (MIC) in the assay on M. hyorinis BTS-7 was 15.6 µg/mL (≈ 20.8 µM); in the assay on M. gallisepticum S6, 0.49 µg/mL (≈ 0.653 µM); with M. gallisepticum BG44T, below 0.12 µg/mL; in assay [1], 32 µg/mL (≈ 42.7 µM); in assay [2] it was 4 µg/mL (≈ 5.33 µM); against Escherichia coli IN-F6-7, 8 µg/mL (≈ 10.7 µM). The MIC in assay [3] is above 256 µg/mL; in [4], 32 µg/mL (≈ 42.7 µM); in assay [5] it was 1 µg/mL (≈ 1.33 µM); with salmonella LD4-8 it was 8 µg/mL (≈ 10.7 µM); in [6], 16 µg/mL (≈ 21.3 µM); in assay [7], 16 µg/mL (≈ 21.3 µM). Moreover, the minimal inhibitory concentration (MIC) in the assay on Pasteurella 8217 is 1 µg/mL (≈ 1.33 µM); in assay [8], above 256 µg/mL; in [9] it was 32 µg/mL (≈ 42.7 µM); against Pasteurella 8229 it was 0.25 µg/mL (≈ 0.333 µM).
Take `CCCCNC[C@H]1/C=C(C)/C=C/C(=O)[C@H](C)C[C@H](CCN2CCCCC2)[C@H](O[C@@H]2O[C@H](C)[C@@H](O)[C@H](N(C)C)[C@H]2O)[C@@H](C)[C@H](O)CC(=O)O[C@@H]1CC` [Compound 4c, (4R,5S,6S,7R,9R,11E,13E,15R,16R)-15-((butylamino)methyl)-6-(((2R,3R,4S,5S,6R)-4-(dimethylamino)-3,5-dihydroxy-6-methyltetrahydro-2H-pyran-2-yl)oxy)-16-ethyl-4-hydroxy-5,9,13-trimethyl-7-(2-(piperidin-1-yl)ethyl)oxacyclohexadeca-11,13-diene-2,10-dione]: the MIC turned out to be 31.2 µg/mL (≈ 43.3 µM) against M. hyorinis BTS-7; 15.6 µg/mL (≈ 21.6 µM) with M. gallisepticum S6; 7.82 µg/mL (≈ 10.8 µM) against M. gallisepticum BG44T; 128 µg/mL (≈ 177 µM) in [1]; 16 µg/mL (≈ 22.2 µM) in assay [2]; 16 µg/mL (≈ 22.2 µM) in the assay with Escherichia coli IN-F6-7. For the same molecule, the MIC in assay [3] is above 256 µg/mL; in assay [4], 64 µg/mL (≈ 88.6 µM); in [5], 2 µg/mL (≈ 2.77 µM); with salmonella LD4-8 it was 32 µg/mL (≈ 44.3 µM); in assay [6], 64 µg/mL (≈ 88.6 µM); in assay [7], 256 µg/mL (≈ 355 µM). The MIC with Pasteurella 8217 was 4 µg/mL (≈ 5.54 µM); in assay [8] it was above 256 µg/mL; in [9], 128 µg/mL (≈ 177 µM); with Pasteurella 8229, 4 µg/mL (≈ 5.54 µM).
For `CC[C@H]1OC(=O)C[C@@H](O)[C@H](C)[C@@H](O[C@@H]2O[C@H](C)[C@@H](O)[C@H](N(C)C)[C@H]2O)[C@@H](CCN2CCCCC2)C[C@@H](C)C(=O)/C=C/C(C)=C/[C@@H]1CNCc1ccccc1` [Compound 4e, (4R,5S,6S,7R,9R,11E,13E,15R,16R)-15-((benzylamino)methyl)-6-(((2R,3R,4S,5S,6R)-4-(dimethylamino)-3,5-dihydroxy-6-methyltetrahydro-2H-pyran-2-yl)oxy)-16-ethyl-4-hydroxy-5,9,13-trimethyl-7-(2-(piperidin-1-yl)ethyl)oxacyclohexadeca-11,13-diene-2,10-dione], the MIC is above 256 µg/mL in [1]; 256 µg/mL (≈ 339 µM) in assay [2]; 256 µg/mL (≈ 339 µM) in the assay on Escherichia coli IN-F6-7; above 256 µg/mL in [3]; 256 µg/mL (≈ 339 µM) in assay [4]; 64 µg/mL (≈ 84.7 µM) in assay [5]. Also, the MIC was above 256 µg/mL in the assay with salmonella LD4-8; 64 µg/mL (≈ 84.7 µM) in [6]; 256 µg/mL (≈ 339 µM) in [7]; 32 µg/mL (≈ 42.3 µM) in the assay with Pasteurella 8217; 256 µg/mL (≈ 339 µM) in assay [8]; 256 µg/mL (≈ 339 µM) in assay [9]. The lowest concentration to inhibit growth in the assay with Pasteurella 8229 (MIC) was 16 µg/mL (≈ 21.2 µM).
Regarding `CC[C@H]1OC(=O)C[C@@H](O)[C@H](C)[C@@H](O[C@@H]2O[C@H](C)[C@@H](O)[C@H](N(C)C)[C@H]2O)[C@@H](CCN2CCCCC2)C[C@@H](C)C(=O)/C=C/C(C)=C/[C@@H]1CN(CCO)CCO` [Compound 4g, (4R,5S,6S,7R,9R,11E,13E,15R,16R)-15-((bis(2-hydroxyethyl)amino)methyl)-6-(((2R,3R,4S,5S,6R)-4-(dimethylamino)-3,5-dihydroxy-6-methyltetrahydro-2H-pyran-2-yl)oxy)-16-ethyl-4-hydroxy-5,9,13-trimethyl-7-(2-(piperidin-1-yl)ethyl)oxacyclohexadeca-11,13-diene-2,10-dione], the MIC in [1] was above 256 µg/mL; in assay [2], 256 µg/mL (≈ 340 µM); in the assay with Escherichia coli IN-F6-7, 256 µg/mL (≈ 340 µM); in assay [3], above 256 µg/mL; in assay [4], 256 µg/mL (≈ 340 µM); in assay [5], 32 µg/mL (≈ 42.4 µM). Also, the minimal inhibitory concentration (MIC) against salmonella LD4-8 was 128 µg/mL (≈ 170 µM); in assay [6], 128 µg/mL (≈ 170 µM); in assay [7], above 256 µg/mL; with Pasteurella 8217, below 0.12 µg/mL; in [8] it was above 256 µg/mL; in assay [9], 256 µg/mL (≈ 340 µM). Also, 32 µg/mL (≈ 42.4 µM) was the least that counted as inhibitory against Pasteurella 8229 (MIC).
For the molecule `CC[C@H]1OC(=O)C[C@@H](O)[C@H](C)[C@@H](O[C@@H]2O[C@H](C)[C@@H](O)[C@H](N(C)C)[C@H]2O)[C@@H](CCN2CCCCC2)C[C@@H](C)C(=O)/C=C/C(C)=C/[C@@H]1CNC1CCCCC1` [Compound 4h, (4R,5S,6S,7R,9R,11E,13E,15R,16R)-15-((cyclohexylamino)methyl)-6-(((2R,3R,4S,5S,6R)-4-(dimethylamino)-3,5-dihydroxy-6-methyltetrahydro-2H-pyran-2-yl)oxy)-16-ethyl-4-hydroxy-5,9,13-trimethyl-7-(2-(piperidin-1-yl)ethyl)oxacyclohexadeca-11,13-diene-2,10-dione], the minimal inhibitory concentration (MIC) was 128 µg/mL (≈ 171 µM) in assay [1]; 16 µg/mL (≈ 21.4 µM) in [2]; 16 µg/mL (≈ 21.4 µM) against Escherichia coli IN-F6-7; above 256 µg/mL in [3]; 64 µg/mL (≈ 85.6 µM) in assay [4]; 2 µg/mL (≈ 2.67 µM) in [5]. Besides, the MIC against salmonella LD4-8 is 32 µg/mL (≈ 42.8 µM); in [6] it was 64 µg/mL (≈ 85.6 µM); in assay [7] it was 32 µg/mL (≈ 42.8 µM); against Pasteurella 8217, 16 µg/mL (≈ 21.4 µM); in assay [8] it was 256 µg/mL (≈ 342 µM); in assay [9] it was 64 µg/mL (≈ 85.6 µM). This molecule displayed a minimum inhibitory concentration (MIC) in the assay on Pasteurella 8229 of 2 µg/mL (≈ 2.67 µM).

By MIC is commonly meant the lowest concentration found to suppress growth. Higher therefore signals a need for much substance.
